Reference: paper PMC7179259, “Safety, Tolerability, Pharmacokinetics, and Antimalarial Activity of the Novel Plasmodium Phosphatidylinositol 4-Kinase Inhibitor MMV390048 in Healthy Volunteers” (Antimicrobial Agents and Chemotherapy, 2020)
Read-outs that look alike come from different tables or passages of the source.

Columns and labels:
[1] = Stability of stock solutions in dimethylsulfoxide; assay type: physicochemical
Excerpt: page 28: Determination of MMV390048 from 50 µ L human plasma by LC -MS/MS A method was validated for the quantification of MMV390048 in human plasma, and consisted of a protein precipitation extraction, followed by high performance liquid chromatography with MS/MS detection. MMV390048- d3 was used as the internal standard. Analyte mean extraction yield was approximately 106.5 % (CV% = 6.2). The extraction procedure was followed by liquid chromatographic separation using a Waters Atlantis T3 3 μm, 100 x 2.1 mm analytical column. An isocratic mobile phase containing water:acetonitrile (25:75 [v/v]) was used at a flow-rate of 300 μL/min. The retention times for MMV390048 and MMV390048- d3 were 1.16 min and 1.16 min, respectively. An AB Sciex API 4000 mass spectrometer at unit resolution in the multiple reaction monitoring mode was used to monitor the transition of the protonated precursor ions, 394.145 m/z and 397.148 m/z, to the product ions, 297.0 m/z and 297.0 m/z, for MMV390048 and the internal standard, respectively. Electro -spray ionisation was used for ion production. Accuracy and precision were assessed over three consecutive, independent runs. The calibration curve fits a quadratic (weighted by 1/x) regressions for MMV390048 over the ranges 0.500 –2000 ng/mL, based on peak area ratios. The assay was successfully cross- validated on a second/back- up API 4000 instrument. […]

[2] = Induced blood-stage malaria (IBSM) study: plasma pharmacokinetics; assay type: in vivo; details: human; for AUC(0-t): oral, 20 mg
Method: (ii) IBSM study. The dose of MMV390048 chosen (20 mg) was based on the pharmacokinetic, safety, and tolerability data available from the first-in-human study at the time the IBSM study commenced (when 5- and 20-mg-dose cohorts of the first-in-human study had been completed). This dose was below the estimated single dose required to achieve complete cure calculated from preclinical studies (80 to 100 mg) since recrudescence allows for characterization of the pharmacokinetic/pharmacodynamic relationship between MMV390048 and P. falciparum parasitemia. Subjects were inoculated intravenously on day 0 with erythrocytes infected with ∼1,800 viable chloroquine-sensitive P. falciparum 3D7 parasites ([17]). Fasted (≥8 h) subjects were dosed with MMV390048 when they reached the parasitemia threshold for treatment (∼1,000 parasites ml^−1) and were followed up until the end-of-study visit on day 28.
(§1) Blood samples from the three studies were analyzed at the University of Cape Town Division of Clinical Pharmacology Laboratory. MMV390048 was extracted from plasma using a protein precipitation procedure and analyzed using a liquid chromatography-tandem mass spectrometry assay. The precision (total assay coefficients of variation) for MMV390048 during sample analysis was less than 8% at all quality control levels, including the limit of quantification, which was 0.5 ng ml^−1. The full details of the assay are included in the supplemental material.
(§2) Noncompartmental pharmacokinetic analysis was performed using Phoenix WinNonlin Pro version 6.3 (Certara L.P., St. Louis, MO, USA) for the first-in-human and the formulation optimization studies, and using R version 3.2.0 for the IBSM study. Pharmacokinetic endpoints were the peak plasma concentration (Cmax), time at which Cmax is reached (Tmax), area under the concentration-time curve from 0 h to infinity (AUC0–inf), elimination half-life (t½), apparent clearance (CL/F), and apparent volume of distribution (Vz/F).

[3] = Stability in human plasma and whole blood (bioanalytical validation); assay type: in vitro ADME
Excerpt: page 28: Determination of MMV390048 from 50 µ L human plasma by LC -MS/MS A method was validated for the quantification of MMV390048 in human plasma, and consisted of a protein precipitation extraction, followed by high performance liquid chromatography with MS/MS detection. MMV390048- d3 was used as the internal standard. Analyte mean extraction yield was approximately 106.5 % (CV% = 6.2). The extraction procedure was followed by liquid chromatographic separation using a Waters Atlantis T3 3 μm, 100 x 2.1 mm analytical column. An isocratic mobile phase containing water:acetonitrile (25:75 [v/v]) was used at a flow-rate of 300 μL/min. The retention times for MMV390048 and MMV390048- d3 were 1.16 min and 1.16 min, respectively. An AB Sciex API 4000 mass spectrometer at unit resolution in the multiple reaction monitoring mode was used to monitor the transition of the protonated precursor ions, 394.145 m/z and 397.148 m/z, to the product ions, 297.0 m/z and 297.0 m/z, for MMV390048 and the internal standard, respectively. Electro -spray ionisation was used for ion production. Accuracy and precision were assessed over three consecutive, independent runs. The calibration curve fits a quadratic (weighted by 1/x) regressions for MMV390048 over the ranges 0.500 –2000 ng/mL, based on peak area ratios. The assay was successfully cross- validated on a second/back- up API 4000 instrument. […] Stock solutions of MMV390048 in dimethylsulfoxide was stable for 67 days when stored at -80°C and for 24 hours when stored at room temperature, 4°C and - 20°C. […] Samples with haemolysis greater than 1% were assayed in duplicate to confirm results.

P. falciparum = tested on: P. falciparum; set-up: method as in PMID 28446690; details: humanized SCID mice infected with P. falciparum; cited from earlier work
[4] = First-in-human single-ascending-dose study: plasma pharmacokinetics; assay type: in vivo; details: for half-life / Tmax / AUC(0-inf) / Cmax / Vd/F: human, plasma; for Vd/F: read-out: Vz/F
Method: (i) First-in-human study. The study was conducted in five fasted cohorts (5, 20, 40, 80, and 120 mg) and one fed 40-mg cohort. The initial dose of 5 mg was chosen in agreement with guidelines on dose selection for first-in-human clinical studies ([15], [16]) and was based on the no-observed-adverse-event level for the most sensitive species observed in preclinical toxicology studies. Doses administered to subsequent cohorts were determined a priori after consideration of interim human pharmacokinetic and safety data.
All subjects in the fasted cohorts were dosed on day 1 after a fasting period of ≥8 h. Water was prohibited from 2 h predose and then allowed ad libitum from 2 h postdose, and standardized meals were provided from 4 h postdose. In the first two cohorts (5 and 20 mg), a sentinel subcohort (n = 2) was dosed on day 1. The safety review team reviewed safety and pharmacokinetic data of these subjects up to day 3 before dosing the rest of these two cohorts and up to day 19 for all cohorts before dose escalation. […] Selected subjects from the fasted cohorts then received 40 mg in a fed state to evaluate the effect of food on the tolerability and pharmacokinetic profile of MMV390048. […] The predose breakfast was in line with FDA guidelines ([13]) and was composed of approximately 800 to 1,000 calories (cal), with 150, 250, and 500 to 600 cal from protein, carbohydrate, and fat, respectively.
as §1, §2

[5] = single oral 20 mg fasted, powder-in-bottle, n = 6, geometric mean (CV %)
[6] = po, 5 mg, single oral 5 mg fasted, powder-in-bottle, n = 6, geometric mean (CV %)
[7] = po, 20 mg, single oral 20 mg fasted, powder-in-bottle, n = 6, geometric mean (CV %)
[8] = po, 40 mg, single oral 40 mg FED (high-fat breakfast), powder-in-bottle, n = 6, geometric mean (CV %)
[9] = po, 40 mg, single oral 40 mg fasted, powder-in-bottle, n = 6, geometric mean (CV %)
[10] = po, 80 mg, single oral 80 mg fasted, powder-in-bottle, n = 6, geometric mean (CV %)
[11] = po, 120 mg, single oral 120 mg fasted, powder-in-bottle, n = 5, geometric mean (CV %)

## CS(=O)(=O)c1ccc(-c2cnc(N)c(-c3ccc(C(F)(F)F)nc3)c2)cc1 [MMV390048]
[1]; room temperature, 4°C and -20°C
  stock solution in dimethylsulfoxide stable for: 24 h
[1]; stored at -80°C
  stock solution in dimethylsulfoxide stable for: 1610 h
[2]; the 4 subjects who recrudesced 2 days after treatment
  AUC(0-t): 6000 to 9000 ng·h/mL
[2]; the two subjects who recrudesced 7 days after treatment
  AUC(0-t): ~12000 ng·h/mL
[2]; [5]
  AUC(0-inf): 15900 ng·h/mL
  Cmax: 106 ng/mL
[2]; single oral 20 mg fasted, powder-in-bottle, n = 6, median (range)
  Tmax: 2 h
[3]; freeze-thaw cycles
  stable in human plasma when subjected to freeze-thaw cycles: 3
[3]; on ice
  stable in whole blood for up to: 1 h
[3]; room temperature
  stable in human plasma for: 6 h
[3]; stored at approximately -80°C
  stable in human plasma for up to: 79 days
P. falciparum
  effective concentration to achieve 90% of the maximal kill rate (EC90): 0.16 µg/mL
[4]; oral, all cohorts, powder-in-bottle, read-out: elimination half-life
  half-life: > 149 h
[4]; oral, fasted cohorts, read-out: median time of maximum concentration (Tmax)
  Tmax: 1 to 2.5 h
[4]; [6]
  AUC(0-inf): 2140 ng·h/mL
  Cmax: 15.6 ng/mL
  Vd/F: 520 L
[4]; po, 5 mg, single oral 5 mg fasted, powder-in-bottle, n = 6, geometric mean (CV %), read-out: t1/2 (converted)
  half-life: 154 h
[4]; po, 5 mg, single oral 5 mg fasted, powder-in-bottle, n = 6, median (range), read-out: Tmax
  Tmax: 1 h
[4]; [7]
  AUC(0-inf): 33300 ng·h/mL
  Cmax: 136 ng/mL
  Vd/F: 266 L
[4]; po, 20 mg, single oral 20 mg fasted, powder-in-bottle, n = 6, geometric mean (CV %), read-out: t1/2 (converted)
  half-life: 306 h
[4]; po, 20 mg, single oral 20 mg fasted, powder-in-bottle, n = 6, median (range), read-out: Tmax
  Tmax: 2 h
[4]; [8]
  AUC(0-inf): 34500 ng·h/mL
  Cmax: 155 ng/mL
  Vd/F: 373 L
[4]; po, 40 mg, single oral 40 mg FED (high-fat breakfast), powder-in-bottle, n = 6, geometric mean (CV %), read-out: t1/2 (converted)
  half-life: 223 h
[4]; po, 40 mg, single oral 40 mg FED (high-fat breakfast), powder-in-bottle, n = 6, median (range), read-out: Tmax
  Tmax: 4 h
[4]; [9]
  AUC(0-inf): 17600 ng·h/mL
  Cmax: 74.4 ng/mL
  Vd/F: 624 L
[4]; po, 40 mg, single oral 40 mg fasted, powder-in-bottle, n = 6, geometric mean (CV %), read-out: t1/2 (converted)
  half-life: 190 h
[4]; po, 40 mg, single oral 40 mg fasted, powder-in-bottle, n = 6, median (range), read-out: Tmax
  Tmax: 2.5 h
[4]; [10]
  AUC(0-inf): 62000 ng·h/mL
  Cmax: 238 ng/mL
  Vd/F: 444 L
[4]; po, 80 mg, single oral 80 mg fasted, powder-in-bottle, n = 6, geometric mean (CV %), read-out: t1/2 (converted)
  half-life: 239 h
[4]; po, 80 mg, single oral 80 mg fasted, powder-in-bottle, n = 6, median (range), read-out: Tmax
  Tmax: 1 h
[4]; [11]
  AUC(0-inf): 82600 ng·h/mL
  Cmax: 518 ng/mL
  Vd/F: 432 L
[4]; po, 120 mg, single oral 120 mg fasted, powder-in-bottle, n = 5, geometric mean (CV %), read-out: t1/2 (converted)
  half-life: 206 h
[4]; po, 120 mg, single oral 120 mg fasted, powder-in-bottle, n = 5, median (range), read-out: Tmax
  Tmax: 1 h
[4]; single oral 5 mg fasted, powder-in-bottle, n = 6, geometric mean (CV %)
  CL/F: 2.3 (76.3) liters h^−1
[4]; [5]
  CL/F: 0.6 (17.1) liters h^−1
[4]; single oral 40 mg FED (high-fat breakfast), powder-in-bottle, n = 6, geometric mean (CV %)
  CL/F: 1.2 (67.5) liters h^−1
[4]; single oral 40 mg fasted, powder-in-bottle, n = 6, geometric mean (CV %)
  CL/F: 2.3 (86.8) liters h^−1
[4]; single oral 80 mg fasted, powder-in-bottle, n = 6, geometric mean (CV %)
  CL/F: 1.3 (46.0) liters h^−1
[4]; single oral 120 mg fasted, powder-in-bottle, n = 5, geometric mean (CV %)
  CL/F: 1.5 (165.8) liters h^−1
